Reference: the supplement of paper PMC11451515

System: SEM cells
Test: cell viability relative to DMSO control; higher = less cytotoxic
Settings: 48 h
Outline: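 NOMO1 or SEM cells were plated at 500 cells/well and P12-Ichikawa cells at 1000 cells/well in 1536-well plates (5 μl), after each leukemia line had been adapted for at least four passages in each medium. Pin dosing delivered library compounds in DMSO at 11 threefold concentrations, 47 μM to 0.79 nM. CellTiter-Glo One luminescence was read after 48 h at 37°C. Viability is reported as a per-plate percentage of DMSO wells, with cell-free wells as background.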

[1] = HPLM + 10% dialyzed FBS, 0.000781 µM
[2] = HPLM + 10% dialyzed FBS, 0.00234 µM
[3] = HPLM + 10% dialyzed FBS, 0.00702 µM
[4] = HPLM + 10% dialyzed FBS, 0.0211 µM
[5] = HPLM + 10% dialyzed FBS, 0.0632 µM
[6] = HPLM + 10% dialyzed FBS, 0.19 µM
[7] = HPLM + 10% dialyzed FBS, 0.569 µM
[8] = HPLM + 10% dialyzed FBS, 1.71 µM
[9] = HPLM + 10% dialyzed FBS, 5.12 µM
[10] = HPLM + 10% dialyzed FBS, 15.4 µM
[11] = HPLM + 10% dialyzed FBS, 46.1 µM
[12] = RPMI 5 mM glucose + 10% FBS, 0.000781 µM
[13] = RPMI 5 mM glucose + 10% FBS, 0.00234 µM
[14] = RPMI 5 mM glucose + 10% FBS, 0.00702 µM
[15] = RPMI 5 mM glucose + 10% FBS, 0.0211 µM
[16] = RPMI 5 mM glucose + 10% FBS, 0.0632 µM
[17] = RPMI 5 mM glucose + 10% FBS, 0.19 µM
[18] = RPMI 5 mM glucose + 10% FBS, 0.569 µM
[19] = RPMI 5 mM glucose + 10% FBS, 1.71 µM
[20] = RPMI 5 mM glucose + 10% FBS, 5.12 µM
[21] = RPMI 5 mM glucose + 10% FBS, 15.4 µM
[22] = RPMI 5 mM glucose + 10% FBS, 46.1 µM
[23] = RPMI 5 mM glucose + 10% dialyzed FBS, 0.000781 µM
[24] = RPMI 5 mM glucose + 10% dialyzed FBS, 0.00234 µM
[25] = RPMI 5 mM glucose + 10% dialyzed FBS, 0.00702 µM
[26] = RPMI 5 mM glucose + 10% dialyzed FBS, 0.0211 µM
[27] = RPMI 5 mM glucose + 10% dialyzed FBS, 0.0632 µM
[28] = RPMI 5 mM glucose + 10% dialyzed FBS, 0.19 µM
[29] = RPMI 5 mM glucose + 10% dialyzed FBS, 0.569 µM
[30] = RPMI 5 mM glucose + 10% dialyzed FBS, 1.71 µM
[31] = RPMI 5 mM glucose + 10% dialyzed FBS, 5.12 µM
[32] = RPMI 5 mM glucose + 10% dialyzed FBS, 15.4 µM
[33] = RPMI 5 mM glucose + 10% dialyzed FBS, 46.1 µM

Row | SMILES | cell viability [1] | cell viability [2] | cell viability [3] | cell viability [4] | cell viability [5] | cell viability [6] | cell viability [7] | cell viability [8] | cell viability [9] | cell viability [10] | cell viability [11] | cell viability [12] | cell viability [13] | cell viability [14] | cell viability [15] | cell viability [16] | cell viability [17] | cell viability [18] | cell viability [19] | cell viability [20] | cell viability [21] | cell viability [22] | cell viability [23] | cell viability [24] | cell viability [25] | cell viability [26] | cell viability [27] | cell viability [28] | cell viability [29] | cell viability [30] | cell viability [31] | cell viability [32] | cell viability [33]
1 | Cc1n[nH]c2ccc(-c3cncc(OC[C@@H](N)Cc4c[nH]c5ccccc45)c3)cc12 | 98.9% | 104% | 89.8% | 97.8% | 83.7% | 40.6% | 32.9% | 19.2% | 2.11% | 0.908% | 1.79% | 94.9% | 111% | 88.6% | 102% | 95.7% | 67% | 59.7% | 25% | 2.35% | 0.602% | 1.49% | 103% | 99.4% | 84.2% | 92.3% | 89% | 56.1% | 47.7% | 26.6% | 2.83% | 0.892% | 1.9%
2 | CN1CCN(CC1)C/2=N/C3=CC=CC=C3NC4=C2C=C(C)S4 | 91% | 105% | 114% | 106% | 102% | 119% | 115% | 114% | 117% | 119% | 105% | 99.3% | 97.4% | 87.4% | 88.6% | 96.2% | 104% | 95.5% | 94.5% | 101% | 94.2% | 88.6% | 95.6% | 99.3% | 105% | 89.4% | 97.1% | 118% | 112% | 110% | 96% | 100% | 93.3%
3 | N[C@@H](Cc1cc(I)c(Oc2cc(I)c(O)c(I)c2)c(I)c1)C(=O)O | 102% | 121% | 107% | 113% | 78.2% | 129% | 119% | 120% | 117% | 93.8% | 92.2% | 98.2% | 105% | 103% | 106% | 59.2% | 112% | 115% | 104% | 94.2% | 88.3% | 84.6% | – | – | – | – | – | – | – | – | – | – | –
4 | CNC(=O)c1cc(COc2nnc(Nc3ccc(Cl)cc3)c3ccoc23)ccn1 | 108% | 112% | 102% | 110% | 121% | 97.9% | 96% | 108% | 102% | 79.9% | 61.2% | 124% | 124% | 110% | 124% | 117% | 127% | 128% | 129% | 97.1% | 95% | 64.7% | 96.6% | 108% | 90.4% | 99% | 95.4% | 104% | 102% | 86.1% | 88.4% | 70.4% | 47.9%
5 | Cc1ccc(Nc2nccc(N(C)c3ccc4c(C)n(C)nc4c3)n2)cc1[S+](N)(=O)[O-] | 83.9% | 89% | 88% | 105% | 98.2% | 91.7% | 91.3% | 91% | 75.3% | 61.3% | 18.1% | 87.2% | 92.9% | 95.7% | 109% | 86.3% | 91.6% | 77.5% | 79.6% | 63% | 38.9% | 7.79% | 95.9% | 83% | 99.7% | 105% | 92.3% | 101% | 90.2% | 81.8% | 57.5% | 49.2% | 14.8%
6 | COc1c(C)c2c(c(O)c1C/C=C(\C)CCC(=O)OCCN1CCOCC1)C(=O)OC2 | 107% | 110% | 99.8% | 117% | 105% | 121% | 92.8% | 106% | 64.6% | 39.2% | 26.2% | 102% | 113% | 107% | 115% | 116% | 116% | 101% | 95.8% | 60.7% | 38.7% | 26% | 110% | 110% | 101% | 111% | 104% | 117% | 107% | 124% | 86.4% | 56% | 32.6%
7 | OCCN1CCN(CCCN2c3ccccc3Sc3ccc(C(F)(F)F)cc32)CC1 | 85.3% | 90% | 80.6% | 34.4% | 104% | 110% | 7.1% | 37.4% | 88.7% | 49.5% | 47.8% | 74.8% | 89.4% | 85.7% | 36% | 96.2% | 122% | 7.38% | 21.4% | 102% | 47.6% | 34.1% | 76.3% | 87.2% | 86.3% | 74.5% | 84% | 115% | 13.7% | 31.1% | 92.3% | 46.3% | 35.9%
8 | CNC(=O)c1cc(Oc2ccc(NC(=O)Nc3ccc(Cl)c(C(F)(F)F)c3)c(F)c2)ccn1 | 83.2% | 91.4% | 91.1% | 78.4% | 84.3% | 80.6% | 39.7% | 43.7% | 35.3% | 25.9% | 25.1% | 97% | 101% | 112% | 114% | 73.8% | 89.4% | 44.1% | 44.1% | 31.6% | 27.2% | 21.8% | 86.9% | 96.7% | 82.1% | 84% | 61.7% | 73.6% | 47.3% | 31.7% | 26.9% | 18.8% | 20.3%
